In series [1] the test system is C. neoformans Sgl1. The experiment in a line: Resorufin-3β-D-glucopyranoside enzyme kinetic assay and HTS assay parameters. Type of series: biochemical, Cryptococcus neoformans. Particulars: for Picomol of resorufin produced: time 20 min, 8 replicates. Here is the method:
Resorufin-3β-D-glucopyranoside (res-glp, Sigma-Aldrich) enzyme kinetic assays were performed according to methods described by Urban et al.[16] with modifications. Reaction buffer contained 50 mM citric acid, 176 mM K2HPO4, pH 6, 0.01% Tween-20, and 10 mM sodium taurocholate. The reactions were carried out in black 96-well plates using 20 ng of enzyme with 100 μM res-glp substrate. In all, 10 μL/well of res-glp substrate was added to each well and the reaction was initiated by adding 20 μL enzyme (20 ng). After incubation at 37 °C for 30–40 min, the fluorescence was read at an excitation of 570 (±10) nm and an emission of 610 (±10) nm on a VersaMax™ Microplate Reader from Molecular Devices. A standard curve was prepared with serial dilutions of the free fluorophore, resorufin, in the same volume of assay buffer. All reactions were linear with respect to time and protein concentration and the pH, temperature, and dimethyl sulfoxide (DMSO) optimal tolerance was verified.
Supplementary Figure 6. High-throughput screening assay parameters. a. Resorufin 3β-D-glucopyranoside (res-glp) hydrolysis by Sgl1 releases the fluorescent product resorufin and glucose. b. Detection linearity of the system. c. Temperature evaluation of Sgl1 activity (n=6). d.
Reaction dependence on pH (n=4). e. DMSO tolerance (n=6). f. Enzyme concentration linearity (n=4). The reaction is linear up to 0.4 pmol of Sgl1 in presence of the substrate res-glp (100 µM). Data presented as mean values +/- SD of 2-3 independent experiments performed in duplicate (c-f). g.Time linearity until 50 min (n=4). h. Eight substrate concentrations tested with 0.2 pmol of Sgl1 until 20 min. i. Kinetic curve of Sgl1 (n=4). Error bars represent standard deviation of four independent experiments performed in technical duplicates. j. Kinetic parameters of Sgl1 reaction with res-glp.
(1 picture or pasted object on this page, not shown here)

Series [2] deals with C. neoformans Sgl1 (Cryptococcus neoformans var. grubii, UniProt J9W473). Briefly: Kinetic evaluation of erg-glc and C6-NBD-GlcCer hydrolysis by Sgl1 (Triton X-100 mixed micelles, HPLC). Particulars: for Km, Michaelis-Menten best-fit value / Vmax, Michaelis-Menten best-fit value, Turnover: source data Fig 1d; for KM: substrate of Sgl1, Triton X-100 mixed micelles, 37 °C. Type of series: biochemical. As to the method:
A 50 μL volume of Cn Sgl1 wild type and 50 μL of mixed micelles of lipid and Triton X-100 in 50 mM Bis-Tris buffer with 150 mM NaCl, 5 mM βME, and 5 mM DTT were mixed and incubated at 37 °C for 10 min (erg-glc, Avanti Polar Lipids) and 1 h (C6-NBD-glcCer, Matreya). For the substrate erg-glc the amount of protein was 5 ng. 150 ng protein was used for reactions with C6-NBD-GlcCer. After the incubation period, each reaction was quenched with a 2:1 chloroform:methanol solution and the organic phase was collected and dried. Then, the lipid content was resuspended in 50 μL methanol and applied to HPLC (Agilent Technologies). Total erg-glc and ergosterol was detected using absorbance at 282 nm on a C-8 column with a flow rate of 0.5 ml/min in methanol/water 90:10 ratio buffered with 1 mM ammonium formate and 0.2% formic acid. A 85:15 ratio of the same eluent was used for C6-NBD-GlcCer and C6-NBD-ceramide monitoring the fluorescence at 470/530 nm excitation/emission. The total area of product was normalized by the total area of its respective substrate.

Series [3] deals with human lung epithelial cancer cell line A549. The note with it: A549 cells, 24 h, MTT. As to the method:
The cells were maintained in Dulbecco’s modified eagle medium containing 10% fetal bovine serum and 1% penicillin–streptomycin. At passage 11, 10^5 cells were transferred into each well of 96-well plates and cultured for 18–24 h for the cells to adhere to the well surface. After, the medium was removed and a fresh medium containing the selected compounds at a concentration range of 1–512 μM were added to the wells. Controls with equivalent serial concentrations of DMSO were also evaluated and compared with a control without DMSO. The plate was incubated at 37 °C with 5% CO2. After 24 h, the supernatant was removed and 50 μL of 5 mg/mL 3-(4,5-dimethylthiazol-2-yl)-2,5-diphenyltetrazoliumbromide (MTT) solution in phosphate-buffered saline (PBS) was added to each well. The plates were incubated for an additional 4 h and the formazan crystals formed inside the cell was dissolved by adding 50 μL DMSO.

“And” between values parts separate entries of the source, which are not always exact repeats. Equal values may be shown once.

The Km is the substrate concentration at which the rate is half of its maximum.

Chain of C. neoformans Sgl1 (Cryptococcus neoformans var. grubii, UniProt J9W473) (J9W473 entry or part of it): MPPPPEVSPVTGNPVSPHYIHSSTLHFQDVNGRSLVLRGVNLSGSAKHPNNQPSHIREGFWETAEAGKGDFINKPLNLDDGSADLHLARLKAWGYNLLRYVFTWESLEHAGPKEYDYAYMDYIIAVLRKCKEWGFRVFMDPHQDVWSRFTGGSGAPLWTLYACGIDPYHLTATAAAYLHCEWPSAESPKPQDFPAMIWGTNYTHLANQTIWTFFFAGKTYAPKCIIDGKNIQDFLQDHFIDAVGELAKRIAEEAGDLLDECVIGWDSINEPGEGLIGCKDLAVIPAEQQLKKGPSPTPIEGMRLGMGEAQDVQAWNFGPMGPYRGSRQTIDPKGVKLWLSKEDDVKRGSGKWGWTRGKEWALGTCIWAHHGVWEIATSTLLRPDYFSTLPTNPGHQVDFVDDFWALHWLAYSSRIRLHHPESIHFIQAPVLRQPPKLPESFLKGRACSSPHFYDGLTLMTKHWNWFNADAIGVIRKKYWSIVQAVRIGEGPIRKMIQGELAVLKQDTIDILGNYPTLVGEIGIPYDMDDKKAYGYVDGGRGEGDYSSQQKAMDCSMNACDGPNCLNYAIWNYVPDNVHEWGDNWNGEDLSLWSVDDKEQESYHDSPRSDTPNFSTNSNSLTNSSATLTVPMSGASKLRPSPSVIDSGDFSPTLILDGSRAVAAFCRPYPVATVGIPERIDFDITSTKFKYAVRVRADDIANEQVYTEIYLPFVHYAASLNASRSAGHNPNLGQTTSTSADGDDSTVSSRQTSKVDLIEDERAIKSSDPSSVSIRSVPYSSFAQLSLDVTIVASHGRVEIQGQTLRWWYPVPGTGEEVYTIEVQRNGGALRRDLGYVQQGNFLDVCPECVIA

As for `O=c1ccc2nc3ccc(O[C@@H]4O[C@H](CO)[C@@H](O)[C@H](O)[C@H]4O)cc3oc-2c1` [Resorufin 3β-D-glp, resorufin-3β-D-glucopyranoside, reference compound], the “Turnover, min-1 (Mean)” value in series [1] (0.8 µM Resorufin 3β-D-glp) turned out to be 0.1166 min⁻¹; in series [1] (1.6 µM Resorufin 3β-D-glp), 0.2022 min⁻¹; in series [1] (3.125 µM Resorufin 3β-D-glp), 0.2828 min⁻¹; in series [1] (6.25 µM Resorufin 3β-D-glp), 0.5182 min⁻¹; in series [1] (12.5 µM Resorufin 3β-D-glp) it was 0.7736 min⁻¹; in series [1] (25 µM Resorufin 3β-D-glp), 1.399 min⁻¹. For the same compound, the “Turnover, min-1 (Mean)” value was 2.307 min⁻¹ in series [1] (50 µM Resorufin 3β-D-glp) and 3.899 min⁻¹ in series [1] (100 µM Resorufin 3β-D-glp). For the same compound, in series [1] (res-glp as Sgl1 substrate, source data Fig S6i), the “Vmax, Michaelis-Menten best-fit value, Turnover” value (from here on “Vmax … Turnover”) turned out to be 9.522 min⁻¹. In addition, in series [1] (res-glp as Sgl1 substrate, source data Fig S6i, read-out: Km, Michaelis-Menten best-fit value), the Km stood at 147 µM.
For `CCCCCCCCCCCCCC=CC(O)C(COC1OC(CO)C(O)C(O)C1O)NC(=O)CCCCCNc1ccc([N+](=O)[O-])c2nonc12` (stereo not shown) [C6-NBD-GlcCer, C6-NBD-glucosylceramide], the “Turnover (mol C6-NBD-Ceramide / sec/ mol enzyme)” value is 0.0009 mol C6-NBD-Ceramide / sec/ mol enzyme and 0.0010 mol C6-NBD-Ceramide / sec/ mol enzyme in series [2] (0.3 mol% C6-NBD-GlcCer); 0.0024 mol C6-NBD-Ceramide / sec/ mol enzyme and 0.0025 mol C6-NBD-Ceramide / sec/ mol enzyme in series [2] (0.7 mol% C6-NBD-GlcCer); 0.0039 mol C6-NBD-Ceramide / sec/ mol enzyme and 0.0038 mol C6-NBD-Ceramide / sec/ mol enzyme in series [2] (1.0 mol% C6-NBD-GlcCer); 0.0051 mol C6-NBD-Ceramide / sec/ mol enzyme in series [2] (1.5 mol% C6-NBD-GlcCer); 0.0066 mol C6-NBD-Ceramide / sec/ mol enzyme and 0.0051 mol C6-NBD-Ceramide / sec/ mol enzyme in series [2] (2.0 mol% C6-NBD-GlcCer); 0.0073 mol C6-NBD-Ceramide / sec/ mol enzyme and 0.0067 mol C6-NBD-Ceramide / sec/ mol enzyme in series [2] (2.5 mol% C6-NBD-GlcCer). The “Turnover (mol C6-NBD-Ceramide / sec/ mol enzyme)” value in series [2] (3.0 mol% C6-NBD-GlcCer) was 0.0085 mol C6-NBD-Ceramide / sec/ mol enzyme and 0.0080 mol C6-NBD-Ceramide / sec/ mol enzyme; in series [2] (3.5 mol% C6-NBD-GlcCer) it was 0.0076 mol C6-NBD-Ceramide / sec/ mol enzyme and 0.0074 mol C6-NBD-Ceramide / sec/ mol enzyme; in series [2] (4.0 mol% C6-NBD-GlcCer), 0.0074 mol C6-NBD-Ceramide / sec/ mol enzyme and 0.0082 mol C6-NBD-Ceramide / sec/ mol enzyme; in series [2] (4.5 mol% C6-NBD-GlcCer), 0.0064 mol C6-NBD-Ceramide / sec/ mol enzyme and 0.0070 mol C6-NBD-Ceramide / sec/ mol enzyme; in series [2] (5.0 mol% C6-NBD-GlcCer), 0.0075 mol C6-NBD-Ceramide / sec/ mol enzyme and 0.0072 mol C6-NBD-Ceramide / sec/ mol enzyme. Also, in series [2], the “Km, Michaelis-Menten best-fit value” is recorded as 1.734 mol%. Besides, the “Vmax … Turnover” value in series [2] came to 0.01082 s⁻¹. Moreover, the KM in series [2] is reported as 1.73 ± 0.37 mol%.
`Cc1ccsc1CN(CCN(C)C)Cc1ccc2nonc2c1` [Hit 10]: in series [3], the “LD50 (lethal dose 50)” value is reported as 301.8 µM.
Consider `O=c1ccc2nc3ccc(O)cc3oc-2c1` [resorufin], for which the “Picomol of resorufin produced” value in series [1] (substrate concentration 0.8 µM) is 13.6869 Picomol and 10.2624 Picomol and 15.333 Picomol and 8.2899 Picomol and 7.897 Picomol and 8.1513 Picomol and 7.834 Picomol and 9.766 Picomol; in series [1] (substrate concentration 1.6 µM), 22.652 Picomol and 16.8084 Picomol and 22.0089 Picomol and 13.8077 Picomol and 14.311 Picomol and 13.7411 Picomol and 16.5589 Picomol and 17.8661 Picomol; in series [1] (substrate concentration 3.125 µM) it was 38.3651 Picomol and 20.7516 Picomol and 22.1703 Picomol and 24.2149 Picomol and 22.4235 Picomol and 18.9404 Picomol and 21.8512 Picomol and 25.5122 Picomol; in series [1] (substrate concentration 6.25 µM) it was 43.9839 Picomol and 34.2216 Picomol and 50.5101 Picomol and 33.7929 Picomol and 44.5629 Picomol and 40.9973 Picomol and 53.26 Picomol and 50.9019 Picomol; in series [1] (substrate concentration 12.5 µM), 71.213 Picomol and 36.0642 Picomol and 41.6688 Picomol and 71.5524 Picomol and 70.9838 Picomol and 75.8794 Picomol and 76.3919 Picomol and 81.7237 Picomol; in series [1] (substrate concentration 25 µM) it was 72.1659 Picomol and 113.232 Picomol and 127.381 Picomol and 122.744 Picomol and 134.032 Picomol and 119.303 Picomol and 123.078 Picomol and 139.365 Picomol. The “Picomol of resorufin produced” value in series [1] (substrate concentration 50 µM) is 180.011 Picomol and 203.084 Picomol and 186.676 Picomol and 209.238 Picomol and 194.059 Picomol and 207.198 Picomol and 188.267 Picomol and 183.529 Picomol; in series [1] (substrate concentration 100 µM) it was 305.03 Picomol and 313.72 Picomol and 318.728 Picomol and 338.834 Picomol and 336.378 Picomol and 332.942 Picomol and 323.184 Picomol and 353.074 Picomol.
In the case of `CC(C)[C@@H](C)/C=C/[C@@H](C)[C@H]1CC[C@H]2C3=CC=C4C[C@@H](O[C@@H]5O[C@H](CO)[C@@H](O)[C@H](O)[C@H]5O)CC[C@]4(C)[C@H]3CC[C@]12C` [erg-glc, ergosterol 3β-D-glucoside], the “Turnover (mol ergosterol / sec/ mol enzyme)” value in series [2] (0.07 mol% Erg-glc) is 0.1064 mol ergosterol / sec/ mol enzyme and 0.1082 mol ergosterol / sec/ mol enzyme; in series [2] (0.10 mol% Erg-glc) it was 0.1849 mol ergosterol / sec/ mol enzyme and 0.1742 mol ergosterol / sec/ mol enzyme; in series [2] (0.20 mol% Erg-glc) it was 0.3045 mol ergosterol / sec/ mol enzyme and 0.2862 mol ergosterol / sec/ mol enzyme; in series [2] (0.50 mol% Erg-glc), 0.4688 mol ergosterol / sec/ mol enzyme and 0.4091 mol ergosterol / sec/ mol enzyme; in series [2] (0.90 mol% Erg-glc), 0.6080 mol ergosterol / sec/ mol enzyme and 0.5033 mol ergosterol / sec/ mol enzyme; in series [2] (1.20 mol% Erg-glc), 0.5944 mol ergosterol / sec/ mol enzyme and 0.5189 mol ergosterol / sec/ mol enzyme. Moreover, the “Turnover (mol ergosterol / sec/ mol enzyme)” value in series [2] (2.00 mol% Erg-glc) was 0.6438 mol ergosterol / sec/ mol enzyme and 0.6016 mol ergosterol / sec/ mol enzyme. In addition, the “Km, Michaelis-Menten best-fit value” in series [2] stood at 0.3118 mol%. Besides, the “Vmax … Turnover” value in series [2] worked out at 0.721 s⁻¹. Besides, the KM in series [2] came out at 0.31 ± 0.04 mol%.

Source of the values: paper PMC8497620, “Structure and inhibition of Cryptococcus neoformans sterylglucosidase to develop antifungal agents” (Nature Communications, 2021).
